Source: article PMC12512194, “The Allosteric Regulator Inositol Phosphate Dramatically Affects the Efficacy and Selectivity of Inhibitors for Different HDAC Complexes” (Journal of the American Chemical Society, 2025)

Experiments:
HDAC3 = biological target: T1, HDAC3 (Homo sapiens, UniProt O15379); assay: HDAC3 protein level / degradation by immunoblot in HCT116 cells; format: cell-based; conditions: even at 10 μM
T1 construct: endogenous in cells; host or cells: HCT116
Method: (§1) complex and inhibitor were then incubated at 20 °C, 100 RPM for 2 hours . After incubation, 10 μL of the Boc -(Ac)Lys -AMC substrate, dissolved in HDAC assay buffer, was added to each well. The plate was incubate d at 30 °C, 100 RPM for 1 hour, followed by addition of 50 μL of a developer buffer (50 mM Tris pH 7.5, 100 mM NaCl, 10 mg/mL trypsin) to quench the reaction. The reaction was allowed to develop for 10 minutes at 30 °C, 100 RPM. Fluorescence intensity was determined with the Victor X5 plate reader (Perkin Elmer, λex = 355 nm, λem = 460 nm). IC50 values were calculated using GraphPad Prism 7 software by non-linear regression, log (inhibitor) vs. response – variable slope (four […]
(§2) 6. Culture of HCT116 cells
HCT116 cells were maintained on 100 mm or 60 mm culture dishes in Dulbecco's Modified Eagle Medium (Gibco) supplemented with 10% fetal bovine serum (Sigma) and 1X glutamine/penicillin/streptomycin (Gibco) . Once the cells reached ~90% confluency, they were washed with warm PBS (Sigma), trypsinised using TrypLETM Express solution (Gibco) and put into an incubator at 37°C for 5 minutes. […]
mins, 4 °C) and the supernatant was collected. Protein concentrations were quantified via Bradford Assay using Protein Assay Dye Reagent Concentrate (BIO -RAD). […]

HDAC1 = biological target: T2, HDAC1 (Homo sapiens, UniProt Q13547); assay: HDAC1 protein level / degradation by immunoblot in HCT116 cells; format: cell-based; conditions: even at 10 μM
T2 construct: endogenous in cells; host or cells: HCT116
Method: as §1, with “Victor” for “Victor X5 plate reader (Perkin Elmer, λex = 355 nm, λem = 460 nm). IC50 values were calculated using GraphPad Prism 7 software by non-linear regression, log (inhibitor) vs. response – variable slope (four”
IC50 values were calculated using GraphPad
Prism 7 software by non-linear regression, log (inhibitor) vs. response – variable slope (four […]
as §2
HCT116 cells were maintained on 100 mm or 60 mm culture dishes in Dulbecco's Modified Eagle Medium (Gibco) supplemented with 10% fetal bovine serum (Sigma) and 1X glutamine/penicillin/streptomycin (Gibco) . Once the cells reached ~90% confluency, they were washed with warm PBS (Sigma), trypsinised using TrypLETM Express solution (Gibco) and put into an incubator at 37°C for 5 minutes. Once dissociated, cell media was used to dilute the cells into required

T1 sequence (O15379 whole entry): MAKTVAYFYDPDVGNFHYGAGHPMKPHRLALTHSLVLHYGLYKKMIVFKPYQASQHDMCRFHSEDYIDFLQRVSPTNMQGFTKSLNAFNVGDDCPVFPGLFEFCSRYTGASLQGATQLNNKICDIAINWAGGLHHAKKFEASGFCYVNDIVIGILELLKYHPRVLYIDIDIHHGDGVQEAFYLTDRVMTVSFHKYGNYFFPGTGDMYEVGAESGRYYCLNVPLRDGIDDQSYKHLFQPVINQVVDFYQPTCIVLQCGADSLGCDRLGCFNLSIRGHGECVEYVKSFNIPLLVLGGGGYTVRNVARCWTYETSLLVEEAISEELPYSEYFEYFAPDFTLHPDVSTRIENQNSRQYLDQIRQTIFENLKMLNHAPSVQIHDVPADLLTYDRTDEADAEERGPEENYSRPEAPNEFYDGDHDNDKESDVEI
T1 sequence (Q9Y618 whole entry partner): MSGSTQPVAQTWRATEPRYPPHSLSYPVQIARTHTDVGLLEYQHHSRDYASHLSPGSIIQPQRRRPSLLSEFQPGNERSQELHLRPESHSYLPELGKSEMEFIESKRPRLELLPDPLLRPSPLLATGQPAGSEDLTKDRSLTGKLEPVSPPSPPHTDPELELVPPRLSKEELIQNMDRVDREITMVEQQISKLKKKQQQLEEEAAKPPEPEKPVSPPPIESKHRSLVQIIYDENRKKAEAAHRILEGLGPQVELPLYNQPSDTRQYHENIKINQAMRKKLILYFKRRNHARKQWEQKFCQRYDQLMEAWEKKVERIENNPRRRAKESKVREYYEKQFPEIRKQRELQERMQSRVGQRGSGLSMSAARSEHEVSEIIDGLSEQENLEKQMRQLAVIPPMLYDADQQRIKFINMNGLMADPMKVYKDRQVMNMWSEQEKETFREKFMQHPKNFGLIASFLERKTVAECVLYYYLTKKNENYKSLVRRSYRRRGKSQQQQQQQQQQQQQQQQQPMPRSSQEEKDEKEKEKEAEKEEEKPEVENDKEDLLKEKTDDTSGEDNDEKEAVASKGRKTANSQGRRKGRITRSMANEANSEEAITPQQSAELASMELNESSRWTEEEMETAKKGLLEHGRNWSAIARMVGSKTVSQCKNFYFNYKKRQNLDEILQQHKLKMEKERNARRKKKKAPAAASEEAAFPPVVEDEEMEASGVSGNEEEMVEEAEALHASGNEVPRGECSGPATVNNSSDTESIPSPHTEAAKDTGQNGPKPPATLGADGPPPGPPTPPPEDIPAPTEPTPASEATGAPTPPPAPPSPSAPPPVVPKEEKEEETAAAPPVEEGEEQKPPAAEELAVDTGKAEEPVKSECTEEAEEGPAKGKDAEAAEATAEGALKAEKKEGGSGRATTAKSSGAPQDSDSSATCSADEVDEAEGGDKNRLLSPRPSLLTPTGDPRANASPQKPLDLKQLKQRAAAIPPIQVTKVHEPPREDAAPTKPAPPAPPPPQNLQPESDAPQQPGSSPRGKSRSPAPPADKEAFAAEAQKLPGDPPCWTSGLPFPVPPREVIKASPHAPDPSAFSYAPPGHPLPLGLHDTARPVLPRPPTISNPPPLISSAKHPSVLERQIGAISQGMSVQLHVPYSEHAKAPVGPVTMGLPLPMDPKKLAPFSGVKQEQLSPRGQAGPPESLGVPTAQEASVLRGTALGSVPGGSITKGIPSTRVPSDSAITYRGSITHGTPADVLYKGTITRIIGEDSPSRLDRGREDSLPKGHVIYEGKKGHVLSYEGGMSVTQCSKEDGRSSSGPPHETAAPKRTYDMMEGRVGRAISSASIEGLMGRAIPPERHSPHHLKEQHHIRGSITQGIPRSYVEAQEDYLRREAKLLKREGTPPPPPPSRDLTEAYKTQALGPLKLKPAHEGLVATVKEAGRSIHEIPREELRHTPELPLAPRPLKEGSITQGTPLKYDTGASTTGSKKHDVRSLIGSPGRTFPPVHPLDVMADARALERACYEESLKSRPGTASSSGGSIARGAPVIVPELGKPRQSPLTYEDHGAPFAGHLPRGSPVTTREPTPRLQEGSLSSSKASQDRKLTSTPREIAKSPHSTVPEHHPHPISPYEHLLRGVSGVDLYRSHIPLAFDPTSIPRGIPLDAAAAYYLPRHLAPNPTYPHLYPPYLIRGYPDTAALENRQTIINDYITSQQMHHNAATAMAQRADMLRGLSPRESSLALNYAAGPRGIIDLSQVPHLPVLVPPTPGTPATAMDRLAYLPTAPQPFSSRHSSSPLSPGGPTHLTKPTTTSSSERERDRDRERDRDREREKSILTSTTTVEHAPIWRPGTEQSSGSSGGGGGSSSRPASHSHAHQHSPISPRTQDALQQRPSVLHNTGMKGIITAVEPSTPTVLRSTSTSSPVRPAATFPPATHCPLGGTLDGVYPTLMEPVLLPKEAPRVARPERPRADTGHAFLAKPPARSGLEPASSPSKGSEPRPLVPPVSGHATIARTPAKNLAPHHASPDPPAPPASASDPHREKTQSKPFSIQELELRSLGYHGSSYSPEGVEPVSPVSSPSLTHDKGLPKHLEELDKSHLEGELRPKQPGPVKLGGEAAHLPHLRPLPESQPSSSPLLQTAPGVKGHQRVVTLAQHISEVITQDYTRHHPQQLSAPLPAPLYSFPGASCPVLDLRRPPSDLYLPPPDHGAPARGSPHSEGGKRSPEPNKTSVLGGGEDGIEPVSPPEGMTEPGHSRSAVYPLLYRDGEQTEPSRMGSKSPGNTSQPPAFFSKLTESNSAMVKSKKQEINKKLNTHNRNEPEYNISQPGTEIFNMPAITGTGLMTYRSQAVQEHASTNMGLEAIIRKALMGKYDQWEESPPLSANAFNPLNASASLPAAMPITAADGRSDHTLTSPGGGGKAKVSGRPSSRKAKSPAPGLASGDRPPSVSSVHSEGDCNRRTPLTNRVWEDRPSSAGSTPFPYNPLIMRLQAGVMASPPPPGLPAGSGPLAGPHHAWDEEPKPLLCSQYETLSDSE
T2 sequence (Q13547 whole entry): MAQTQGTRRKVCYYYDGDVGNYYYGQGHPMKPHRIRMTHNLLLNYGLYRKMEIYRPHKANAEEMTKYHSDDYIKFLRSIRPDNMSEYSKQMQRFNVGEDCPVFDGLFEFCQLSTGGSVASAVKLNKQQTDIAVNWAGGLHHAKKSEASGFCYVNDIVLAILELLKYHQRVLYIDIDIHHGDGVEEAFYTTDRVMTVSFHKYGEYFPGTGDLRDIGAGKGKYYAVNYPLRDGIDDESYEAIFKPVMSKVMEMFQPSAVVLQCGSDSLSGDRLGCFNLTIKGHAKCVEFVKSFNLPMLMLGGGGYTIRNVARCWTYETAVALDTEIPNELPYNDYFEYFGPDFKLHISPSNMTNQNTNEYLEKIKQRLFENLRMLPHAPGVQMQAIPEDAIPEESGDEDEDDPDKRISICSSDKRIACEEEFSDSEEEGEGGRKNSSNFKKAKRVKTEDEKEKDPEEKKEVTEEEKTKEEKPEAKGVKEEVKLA

Cc1ncsc1-c1ccc(CNC(=O)[C@@H]2C[C@@H](O)CN2C(=O)[C@@H](NC(=O)CCCCCCCCCC(=O)N2CCN(c3cnc(C(=O)Nc4cc(-c5ccncc5)ccc4N)cn3)CC2)C(C)(C)C)cc1 [JPS062]
degradation of HDAC3 (HDAC3): no degradation
degradation of HDAC1 (HDAC1): no degradation
